The values that follow are results of earlier work, collected in patent US8293845B2, “Irritation mitigating polymers and uses therefor” (priority 2006, dated 2012).

For the data set the following is noted: from Schoenberg, Household & Personal Products Industry 1979.

Take `CCCCCCCCCCCCOS(=O)(=O)[O-].[Na+]` [sodium lauryl sulfate]: the eye irritation result was “causes significant eye irritation”.
